These results are taken from patent publication US6451828B1, “Selective inhibition of glutaminase by bis-thiadiazoles” (priority 2000, dated 2002).

The target of experiment [1] is T1, glutaminase activity in rat brain membranes (Rattus norvegicus, UniProt P13264).
T1 construct: from tissue; host or cells: rat brain membranes
T1 sequence (P13264 55-674): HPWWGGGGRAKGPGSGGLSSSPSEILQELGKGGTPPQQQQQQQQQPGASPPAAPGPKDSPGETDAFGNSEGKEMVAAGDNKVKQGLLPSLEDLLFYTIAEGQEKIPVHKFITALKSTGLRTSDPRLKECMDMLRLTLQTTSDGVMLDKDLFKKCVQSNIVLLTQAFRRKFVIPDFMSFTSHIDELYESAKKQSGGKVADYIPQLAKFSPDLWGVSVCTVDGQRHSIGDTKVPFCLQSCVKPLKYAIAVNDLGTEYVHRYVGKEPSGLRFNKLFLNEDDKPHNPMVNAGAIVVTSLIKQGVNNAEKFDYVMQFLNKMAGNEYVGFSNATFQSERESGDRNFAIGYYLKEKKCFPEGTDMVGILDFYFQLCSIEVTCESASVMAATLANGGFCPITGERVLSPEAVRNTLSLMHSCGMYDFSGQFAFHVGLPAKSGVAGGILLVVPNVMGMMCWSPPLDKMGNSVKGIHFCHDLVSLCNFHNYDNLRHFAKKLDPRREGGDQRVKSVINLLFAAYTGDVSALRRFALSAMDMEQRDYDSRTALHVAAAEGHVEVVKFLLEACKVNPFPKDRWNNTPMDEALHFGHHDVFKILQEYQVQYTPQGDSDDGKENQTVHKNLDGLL
The experiment is described as follows: Inhibition of glutaminase activity in rat brain membranes. The format is biochemical. The note with it: PO4 conc. = 8 mM; FIG. 2. Here is the method:
Aliquots of 10 μL were removed at 0, 85, and 195 min, added to 90 μL 1:3 DMF/H2O, and analyzed for glutamate by HPLC following derivatization with o-phthaldialdehyde and 2-mercaptoethanol (see Lo et al. 1998).

The subject of a further experiment is cerebellar granule cells. The experiment is described as follows: Intracellular amino acids in primary cultures of cerebellar granule cells. In kind it is cell-based. Here is the method: After 5 h incubation, the cultures were washed twice with phosphate buffered saline, extracted with perchloric acid and analyzed for amino acids as described for FIG. 5A. To produce dose response curves for lowering of intracellular Glu and Asp (FIG. 6A-B), the procedure was repeated with 4 days (for cerebellar granule cells) and 12 days of incubation (for astrocytes). […] Results are shown in FIGS. 6A-B. Data are expressed as the ratio of Glu, Asp, or GABA to Ala (neurons and astrocytes) or Ser (astrocytes).

Experiment [2] relates to intestinal epithelial (CACO2) cells. Kind of experiment: Intracellular nucleotides in intestinal epithelial cells. In kind it is cell-based. The note with it: at 10 μM, FIG. 5B. Here is the method: The remaining volume of the extracts was used for chromatographic determination of nucleic acids, as described in Di Pierro et al. This assay reflects the activity of a variety of glutamine amidotransferases, including CTP synthetase, which are mechanistically and functionally related to glutaminase.
CTP synthetase is a glutamine amidotransferase which synthesizes CTP by adding the amide nitrogen of glutamine to UTP.
Intestinal epithelial (CACO2) cells were grown in 12 well plates with Eagles minimal essential medium containing 2 mM glutamine, as recommended (American Tissue Culture Collection). When the cells reached about 80% confluency, fresh glutamine was added to 2 mM. […] After 6.5 h of incubation, cultures were washed twice with phosphate buffered saline and extracted with 100 μL 1M perchloric acid. Extracts were neutralized with 30 μL of 5M potassium carbonate, centrifuged, and analyzed by HPLC for nucleotides, as described in Di Pierro et al. 1995, and for amino acids, as described in Lo et al. 1998. Results are shown in FIG. 5A (amino acids) and FIG. 5B (nucleotides).

A further experiment concerns the target T2, calpain 1 (Homo sapiens, UniProt P07384).
T2 sequence (P07384 1-714): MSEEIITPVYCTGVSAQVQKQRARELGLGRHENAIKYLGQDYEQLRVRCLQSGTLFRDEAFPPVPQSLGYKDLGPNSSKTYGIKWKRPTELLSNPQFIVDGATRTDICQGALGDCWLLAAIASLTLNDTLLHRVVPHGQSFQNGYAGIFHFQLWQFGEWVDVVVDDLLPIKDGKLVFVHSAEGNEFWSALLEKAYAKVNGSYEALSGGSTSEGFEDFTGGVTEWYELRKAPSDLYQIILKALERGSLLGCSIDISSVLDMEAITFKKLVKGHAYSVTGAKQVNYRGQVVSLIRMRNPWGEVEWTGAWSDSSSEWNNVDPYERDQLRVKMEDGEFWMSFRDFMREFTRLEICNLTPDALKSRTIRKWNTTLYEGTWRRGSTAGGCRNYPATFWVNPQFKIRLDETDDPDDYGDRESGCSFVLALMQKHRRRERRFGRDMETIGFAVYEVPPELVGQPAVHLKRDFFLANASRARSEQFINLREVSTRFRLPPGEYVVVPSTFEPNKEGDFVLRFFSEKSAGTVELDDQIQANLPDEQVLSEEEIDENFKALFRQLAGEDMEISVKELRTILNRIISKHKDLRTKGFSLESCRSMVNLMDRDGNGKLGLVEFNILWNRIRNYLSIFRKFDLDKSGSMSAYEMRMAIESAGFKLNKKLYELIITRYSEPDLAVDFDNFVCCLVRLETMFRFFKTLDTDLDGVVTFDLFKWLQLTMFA
T2 sequence (P04632 1-268 partner): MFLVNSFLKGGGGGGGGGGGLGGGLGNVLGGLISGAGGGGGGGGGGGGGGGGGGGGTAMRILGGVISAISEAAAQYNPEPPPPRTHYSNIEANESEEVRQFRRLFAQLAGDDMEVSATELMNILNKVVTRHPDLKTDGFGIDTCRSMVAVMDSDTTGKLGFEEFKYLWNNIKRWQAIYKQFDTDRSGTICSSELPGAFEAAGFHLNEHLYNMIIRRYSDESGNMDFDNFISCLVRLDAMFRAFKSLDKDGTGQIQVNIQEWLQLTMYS
The experiment is described as follows: Specificity: effect on mechanistically related enzyme. In kind it is biochemical. The following applies: at 30 μM (data not shown). As to the method:
(§1) Specificity for glutaminase was evaluated at two levels. Compounds were evaluated for specific interactions with several thiol hydrolases (cathepsin B, caspase-9, calpain-1, and […]). These are cysteine proteases which are believed to function by a mechanisms similar to that of glutaminase. Compounds were also evaluated for effects on intracellular amino acids and nucleotides in CACO2 (intestinal epithelial) cells (Example 5), and for effects on amino acids in primary cultures of cerebellar neurons (granule cells) and astrocytes (Examples 6-7). These measurements reflect interactions with other glutamine utilizing enzymes involved in amino acid and nucleic acid biosynthesis and homeostasis. For example, a decrease in cytidine triphosphate (CTP) and an increase in uridine triphosphate (UTP) on treatment with DON (6-diazo-5-oxo-L-norleucine), a known nonselective antiglutamine affinity label, is indicative of inhibition of the activity of CTP synthetase, for which UTP is the substrate and CTP the product.

In another experiment the target is cathespin B (Homo sapiens, UniProt P07858). The description is as above. The format is biochemical. The note with it: at 30 μM (data not shown). As to the method:
as §1

Consider `O=C(Cc1ccccc1)Nc1nnc(CCSCCc2nnc(NC(=O)Cc3ccccc3)s2)s1` [SNX-1770, bis-2′-[5-(phenylacetamido)-1,3,4-thiadiazol-2-yl]ethyl sulfide], for which the “Inhibition of glutaminase activity in rat brain membranes” value in experiment [1] was “inhibition of glutaminase activity”. In the experiment on cerebellar granule cells (at 10 μM, cultured cerebellar neurons), the “Effect on intracellular (non-glutamate) amino acids, including serine, glycine, arginine, alanine, taurine” value is reported as “no effect”. For the same compound, the “Lowering of cellular glutamate” value with cerebellar granule cells (granule cell neurons, partial and specific) is given as around 30%. Besides, the “Effect on cellular GABA” value with cerebellar granule cells (granule cells, levels up to 10 μM, FIG. 6C) is listed as “no effect”. The IC50 in the experiment with cerebellar granule cells (primary cultures of cerebellar granule cells, read-out: IC50, lowering of cellular glutamate) lay in the range of 50 to 100 nM. In addition, the “Effect on intracellular nucleotides” value in experiment [2] is “no effect”. The “Effect on calpain 1” value at calpain 1 is “Nor did it have any effect”. The “Effect on cathespin B” value on cathespin B is reported as “Nor did it have any effect”.
